From patent US20120201749A1, “NP-1 Antagonists and Their Therapeutic Use” (priority 2009, published 2012)
Several values for one entry are separate records, joined by “and”; a condition that tells them apart may be missing. Identical values can stand only once.

Key:
NP-1 = NP-1 (Homo sapiens, UniProt O14786); assay: Biotinylated-VEGF-A165 (bt-VEGF-A165) binding to NP-1; conditions: for inhibition at 3 µM: 3 μM compound, read-out: Screen (% inhibition at 3 μM); for inhibition at 30 µM: 30 μM compound, read-out: Screen (% inhibition at 30 μM)
Chain of NP-1 (O14786 22-923): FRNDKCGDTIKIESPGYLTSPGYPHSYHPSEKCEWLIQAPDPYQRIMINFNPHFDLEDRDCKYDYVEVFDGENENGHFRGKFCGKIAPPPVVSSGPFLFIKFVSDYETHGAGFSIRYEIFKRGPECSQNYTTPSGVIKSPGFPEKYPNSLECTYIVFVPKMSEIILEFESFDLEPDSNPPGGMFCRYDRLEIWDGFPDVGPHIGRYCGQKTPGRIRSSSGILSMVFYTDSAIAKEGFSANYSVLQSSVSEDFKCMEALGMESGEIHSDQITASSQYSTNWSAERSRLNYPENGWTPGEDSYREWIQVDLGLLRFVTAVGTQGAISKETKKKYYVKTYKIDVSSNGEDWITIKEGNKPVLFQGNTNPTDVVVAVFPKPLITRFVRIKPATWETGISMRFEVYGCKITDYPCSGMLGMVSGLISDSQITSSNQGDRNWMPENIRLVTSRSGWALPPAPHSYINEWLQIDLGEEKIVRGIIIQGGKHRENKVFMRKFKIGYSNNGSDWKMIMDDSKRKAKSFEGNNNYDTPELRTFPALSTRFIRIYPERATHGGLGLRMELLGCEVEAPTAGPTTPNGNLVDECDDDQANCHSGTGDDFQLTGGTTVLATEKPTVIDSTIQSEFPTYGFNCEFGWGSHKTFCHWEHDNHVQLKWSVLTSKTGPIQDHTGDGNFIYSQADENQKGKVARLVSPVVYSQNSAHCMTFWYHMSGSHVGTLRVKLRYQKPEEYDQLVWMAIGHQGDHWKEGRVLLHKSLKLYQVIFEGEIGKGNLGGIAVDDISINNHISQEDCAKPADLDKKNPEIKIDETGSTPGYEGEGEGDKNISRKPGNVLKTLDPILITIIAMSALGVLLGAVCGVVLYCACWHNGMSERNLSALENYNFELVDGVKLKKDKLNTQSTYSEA
Outline: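 Both formats: compound with bt-VEGF-A165 for 2 h at room temperature, detection via streptavidin-HRP at A450 (ref A595). Cell-based: Ad.NP-1-transfected DU145 cells, 2 nM tracer, nonspecific from 100-fold unlabelled VEGF-A165. Cell-free: NP-1-coated wells (3 μg/ml), 0.25 nM tracer, nonspecific from uncoated wells.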

[1] = test system: human non-small-cell lung carcinoma A549 cells; assay: Lung cancer in vivo study, A549 xenografts in nude mice
Description: For the efficacy study, human non-small-cell lung carcinoma A549 cells were cultured in growth medium RPMI 1640. The cells at 90% confluence were detached, counted and suspended in PBS to make the final concentration of cells 5×10^7/ml for inoculation.
The compound administration began two weeks after A549 cells were inoculated in female Balb/c nude mice. Compound 58 was dosed intraperitoneally at 80 mg/kg daily for a period of 2 weeks. Tumour volume was monitored by measuring the length and the width of the tumour using an electronic digital caliper (Fisher Scientific) daily for a period of 2 weeks. Tumour volumes were calculated using a formula (length×width^2/2). At the end of the experiment, tumours were dissected and weighed.

inhibition at 3 µM (NP-1) [%]	inhibition at 30 µM (NP-1) [%]	IC50 (NP-1) [nM]	SMILES	further results
71	96	–	N=C(N)NCCC[C@H](NC(=O)c1sccc1NS(=O)(=O)c1cc(-c2cccc(CNCCO)c2)cc2c1OCC2)C(=O)O [Compound 35, (S)-5-Guanidino-2-{[3-(5-{3-[(2-hydroxy-ethylamino)-methyl]-phenyl}-2,3-dihydro-benzofuran-7-sulfonylamino)-thiophene-2-carbonyl]-amino}-pentanoic acid]	–
54	–	–	N=C(N)NCCC[C@H](NC(=O)c1sccc1NS(=O)(=O)c1cc(-c2ccccc2CNCc2cc[nH]n2)cc2c1OCC2)C(=O)O [Compound 53, (S)-5-Guanidino-2-({3-[5-(2-{[(1H-pyrazol-3-ylmethyl)-amino]-methyl}-phenyl)-2,3-dihydro-benzofuran-7-sulfonylamino]-thiophene-2-carbonyl}-amino)-pentanoic acid]	–
58	94	–	N=C(N)NCCC[C@H](NC(=O)c1sccc1NS(=O)(=O)c1cccc(NCc2csc(N3CCN(Cc4cccnc4)CC3)n2)c1)C(=O)O [Compound 59, (S)-5-guanidino-2-{[3-(3-{[2-(4-pyridin-3-ylmethyl-piperazin-1-yl)-thiazol-4-ylmethyl]-amino}-benzenesulfonylamino)-thiophene-2-carbonyl]-amino}-pentanoic acid]	–
86	99	105	N=C(N)NCCC[C@H](NC(=O)c1sccc1NS(=O)(=O)c1cc(-c2cccc(CNCc3ccccn3)c2)cc2c1OCC2)C(=O)O [Compound 31, (S)-5-Guanidino-2-({3-[5-(3-{[(pyridin-2-ylmethyl)-amino]-methyl}-phenyl)-2,3-dihydro-benzofuran-7-sulfonylamino]-thiophene-2-carbonyl}-amino)-pentanoic acid]	–
53	91	–	N=C(N)NCCC[C@H](NC(=O)c1sccc1NS(=O)(=O)c1cccc(NCc2csc(N3CCOCC3)n2)c1)C(=O)O [Compound 71, (S)-5-guanidino-2-[(3-{3-[(2-morpholin-4-yl-thiazol-4-ylmethyl)-amino]-benzenesulfonylamino}-thiophene-2-carbonyl]-amino]-pentanoic acid]	–
65	–	–	Cc1[nH]ncc1CCCNCc1ccccc1-c1cc2c(c(S(=O)(=O)Nc3ccsc3C(=O)N[C@@H](CCCNC(=N)N)C(=O)O)c1)OCC2 [Compound 46, (S)-5-Guanidino-2-({3-[5-(2-{[3-(5-methyl-1H-pyrazol-4-yl)-propylamino]-methyl}-phenyl)-2,3-dihydro-benzofuran-7-sulfonylamino]-thiophene-2-carbonyl}-amino)-pentanoic acid]	–
25	63	–	N#Cc1cccc(NC(=O)CNc2cccc(S(=O)(=O)Nc3ccsc3C(=O)N[C@@H](CCCNC(=N)N)C(=O)O)c2)c1 [Compound 70, (S)-2-{[3-(3-{[(3-Cyano-phenylcarbamoyl)-methyl]-amino}-benzenesulfonylamino)-thiophene-2-carbonyl]-amino}-5-guanidino-pentanoic acid]	–
96	–	–	N=C(N)NCCC[C@H](NC(=O)c1sccc1NS(=O)(=O)c1cc(-c2ccccc2CN2CCC(CC(=O)O)CC2)cc2c1OCC2)C(=O)O [Compound 2, (S)-2-[(3-{5-[2-(4-Carboxymethyl-piperidin-1-ylmethyl)-phenyl]-2,3-dihydro-benzofuran-7-sulfonylamino}-thiophene-2-carbonyl)-amino]-5-guanidino-pentanoic acid]	–
73	–	–	N=C(N)NCCC[C@H](NC(=O)c1sccc1NS(=O)(=O)c1cc(-c2ccccc2CN2CCC(N)CC2)cc2c1OCC2)C(=O)O [Compound 21, (S)-2-[(3-{5-[2-(4-Amino-piperidin-1-ylmethyl)-phenyl]-2,3-dihydro-benzofuran-7-sulfonylamino}-thiophene-2-carbonyl)-amino]-5-guanidino-pentanoic acid]	–
49	83	–	N=C(N)NCCC[C@H](NC(=O)c1sccc1NS(=O)(=O)c1cccc(NCc2csc(N3CCN(c4ccccn4)CC3)n2)c1)C(=O)O [Compound 63, (S)-5-guanidino-2-{[3-(3-{[2-(4-pyridin-2-yl-piperazin-1-yl)-thiazol-4-ylmethyl]-amino}-benzenesulfonylamino)-thiophene-2-carbonyl]-amino}-pentanoic acid]	–
94	–	5	COC(=O)C1CCN(Cc2cccc(-c3cc4c(c(S(=O)(=O)Nc5ccsc5C(=O)N[C@@H](CCCNC(=N)N)C(=O)O)c3)OCC4)c2)CC1 [Compound 7, 1-(3-{7-[2-((S)-1-Carboxy-4-guanidino-butylcarbamoyl)-thiophen-3-ylsulfamoyl]-2,3-dihydro-benzofuran-5-yl}-benzyl)-piperidine-4-carboxylic acid methyl ester]	–
58	97	–	Cn1cncc1CNCc1ccccc1-c1cc2c(c(S(=O)(=O)Nc3ccsc3C(=O)N[C@@H](CCCNC(=N)N)C(=O)O)c1)OCC2 [Compound 23, (S)-5-Guanidino-2-({3-[5-(2-{[(3-methyl-3H-imidazol-4-ylmethyl)-amino]-methyl}-phenyl)-2,3-dihydro-benzofuran-7-sulfonylamino]-thiophene-2-carbonyl}-amino)-pentanoic acid]	–
31	83	–	N=C(N)NCCC[C@H](NC(=O)c1sccc1NS(=O)(=O)c1cccc(NCc2csc(C(=O)O)n2)c1)C(=O)O [Compound 72]	–
94	–	740	N=C(N)NCCC[C@H](NC(=O)c1sccc1NS(=O)(=O)c1cc(-c2cccc(CNCc3cn[nH]c3)c2)cc2c1OCC2)C(=O)O [Compound 51, (S)-5-Guanidino-2-({3-[5-(3-{[(1H-pyrazol-4-ylmethyl)-amino]-methyl}-phenyl)-2,3-dihydro-benzofuran-7-sulfonylamino]-thiophene-2-carbonyl}-amino)-pentanoic acid]	–
–	97	3000	N=C(N)NCCC[C@H](NC(=O)c1sccc1NS(=O)(=O)c1cc(-c2ccccc2CNCc2cccnc2)cc2c1OCC2)C(=O)O [Compound 9, (S)-5-Guanidino-2-({3-[5-(2-{[(pyridin-3-ylmethyl)-amino]-methyl}-phenyl)-2,3-dihydro-benzofuran-7-sulfonylamino]-thiophene-2-carbonyl}-amino)-pentanoic acid]	–
68	95	–	N=C(N)NCCC[C@H](NC(=O)c1sccc1NS(=O)(=O)c1cccc(NCc2csc(N3CCN(c4cccnc4)CC3)n2)c1)C(=O)O [Compound 62, (S)-5-guanidino-2-{[3-(3-{[2-(4-pyridin-3-yl-piperazin-1-yl)-thiazol-4-ylmethyl]-amino}-benzenesulfonylamino)-thiophene-2-carbonyl]-amino}-pentanoic acid]	–
47	–	3700	N=C(N)NCCC[C@H](NC(=O)c1sccc1NS(=O)(=O)c1cccc(NCc2csc(N3CCN(CCO)CC3)n2)c1)C(=O)O [Compound 77, (S)-5-Guanidino-2-({3-[3-({2-[4-(2-hydroxy-ethyl)-piperazin-1-yl]-thiazol-4-ylmethyl}-amino)-benzenesulfonylamino]-thiophene-2-carbonyl}-amino)-pentanoic acid]	–
64	95	–	N=C(N)NCCC[C@H](NC(=O)c1sccc1NS(=O)(=O)c1cc(-c2ccccc2CN2CCN(Cc3ccccn3)CC2)cc2c1OCC2)C(=O)O [Compound 16, (S)-5-Guanidino-2-[(3-{5-[2-(4-pyridin-2-ylmethyl-piperazin-1-ylmethyl)-phenyl]-2,3-dihydro-benzofuran-7-sulfonylamino}-thiophene-2-carbonyl)-amino]-pentanoic acid]	–

SMILES	inhibition at 3 µM (NP-1) [%]	inhibition at 30 µM (NP-1) [%]	IC50 (NP-1) [nM]	further results
N=C(N)NCCC[C@H](NC(=O)c1sccc1NS(=O)(=O)c1cccc(NCc2csc(N3CCNCC3)n2)c1)C(=O)O [Compound 58, (S)-5-guanidino-2-[(3-{3-[(2-piperazin-1-yl-thiazol-4-ylmethyl)-amino]-benzenesulfonylamino}-thiophene-2-carbonyl]-amino]-pentanoic acid]	72	96	159	reduction of the rate of tumour growth ([1]; 80 mg/kg intraperitoneally daily for 2 weeks, A549 tumours, p=0.017 by linear regression test): 52% and 50%; tumour weight reduced by ([1]; 80 mg/kg intraperitoneally daily for 2 weeks, tumours weighed at end of experiment, p=0.04 by Mann Whitney test): 27%; effect on rate of tumour growth (in words) ([1]; preclinical model of lung cancer): significantly reduced the rate of tumour growth; evidence of toxicity ([1]; single daily dose for two weeks, murine model of lung cancer): No evidence of toxicity
